{"source": "patent US20120309821A1", "about": "“Use of epigallocatechin-3-gallate for immune regulation” (NATIONAL DEFENSE MEDICAL CENTER, priority 2011, published 2012)", "format_in_all_cases": "in vivo, mouse", "key": {"[1]": {"test_system": "glutathione peroxidase (GPx)", "assay": "GPx activity in renal cortex lysates", "conditions": "120 mg/kg by gavage daily; week 34; compared with increase in disease control mice", "method": "(§1) Female NZB/W F1 mice were purchased from the Animal Center of the National Taiwan University (Taipei, Taiwan, ROC) and, at 12 weeks of age, were divided into two groups, one of which was given normal saline and served as the disease control, while the other was given 120 mg/kg body weight of EGCG (Ryss Lab, Inc., CA, USA) (this dose is a slight modification of those used in previous in vivo studies) by gavage daily till sacrificed at 34-weeks-old. 8-Week-old NZB/W F1 female mice (prior to onset of autoantibody production) were used as normal controls. Urine samples were collected in metabolic cages every 2 weeks and urine protein levels were measured, and serum samples were used to measure serum levels of blood urea nitrogen (BUN) and creatinine (Cr) as described previously (Ka, S. M. et al. Decoy receptor 3 ameliorates an autoimmune crescentic glomerulonephritis model in mice. J Am Soc Nephrol 18:2473-2485; 2007). All animal experiments were performed upon the ethical approval of the Institutional Animal Care and Use Committee of the National Defense Medical Center, Taiwan and according to the ethical rules in the NIH Guide for the Care and Use of Laboratory Animals."}, "caspase-1": {"test_system": "caspase-1", "assay": "Western blot of caspase-1 p20 in kidney", "conditions": "120 mg/kg by gavage daily, week 34", "method": "as §1, with “Animals. […] Antibodies to histone H3 (Cell Signaling) or β-actin (Santa Cruz) were used as internal controls for the nuclear and cytosolic target proteins, respectively.” for “Animals.”"}, "NF-κB p65": {"test_system": "NF-κB p65", "assay": "Renal nuclear NF-κB p65 activation ELISA (TransAM)", "conditions": "120 mg/kg by gavage daily; week 34; increase seen in disease control", "method": "as §1, with “All animal experiments were performed upon the ethical approval of the Institutional Animal Care and Use Committee of the National Defense Medical Center, Taiwan and according to the ethical rules in the NIH Guide for the Care and Use of Laboratory Animals.” left out\nNuclear protein from renal cortex was extracted using a Nuclear Extract Kit (Active Motif) according to the manufacturer's instructions and nuclear NF-κB p65 activation quantified using an ELISA-based TransAM NF-κB kit (Active Motif, Tokyo, Japan) according to the manufacturer's protocol by reading the absorbance on an ELISA plate reader (Bio-Tek, VT, USA) at 450 nm with a reference wavelength of 655 nm."}, "anti-dsDNA antibodies": {"test_system": "anti-dsDNA antibodies", "assay": "Serum anti-dsDNA antibody ELISA", "conditions": "120 mg/kg by gavage daily; week 34; increase over normal control", "method": "as §1, with “[…] Serum levels of anti-dsDNA antibodies” for “All animal experiments”, “measured using an anti-mouse dsDNA enzyme-linked immunosorbent assay (ELISA) kit (Alpha Diagnostic, TX, USA)” for “performed upon the ethical approval of the Institutional Animal Care and Use Committee of the National Defense Medical Center, Taiwan and”, “manufacturer's instructions. The absorbance at 450 nm was measured using an ELISA plate reader (Bio-Tek, VT, USA).” for “ethical rules in the NIH Guide for the Care and Use of Laboratory Animals.”"}, "[2]": {"test_system": "IgG immune complex deposition in the glomerulus", "assay": "Kidney IgG immune complex deposits by immunofluorescence", "conditions": "120 mg/kg by gavage daily; week 34; disease control vs EGCG-treated mice", "method": "as §1, with “Animals. For immune complex detection, frozen renal tissues were prepared and incubated with fluorescein isothiocyanate (FITC)-conjugated goat anti-mouse IgG antibodies (Cappel, N.C., USA). […] Scoring of staining was recorded.” for “Animals.”"}}, "data": [{"substance": "Epigallocatechin-3-gallate [EGCG]", "values": [{"measurement": "GPx activity in the kidney", "setting": "[1]", "result": "even larger increase"}, {"measurement": "caspase-1 activation (appearance of the p20 subunit) in kidney", "setting": "caspase-1", "result": "significantly inhibited"}, {"measurement": "nuclear NF-κB p65 levels (ELISA, renal nuclear protein extracts)", "setting": "NF-κB p65", "result": "significantly inhibited"}, {"measurement": "serum anti-dsDNA antibody levels", "setting": "anti-dsDNA antibodies", "result": "not inhibited"}, {"measurement": "IgG immune complex deposition in the glomerulus", "setting": "[2]", "result": "no significant difference"}]}]}
